In patent US20050112204A1, “Pharmaceutical formulations” (priority 2003, published 2005):
Converted amounts (≈) assume the structure as drawn.

Experiments:
Format in all cases: physicochemical
[1] = aqueous solubility of voriconazole (previously measured data); conditions: water, aqueous buffer; pH 7; 22° C.
[2] = visual solubility of voriconazole in water and aqueous poloxamer F127 solutions (Example 2); conditions: for visual solubility in water: ambient conditions; for solubility: aqueous poloxamer F127 solution, aqueous with cosolvent or surfactant or cyclodextrin, thermodynamic from solid, read-out: soluble up to
Method: Voriconazole aqueous solutions of 0.5 and 1 mg/ml were prepared in water (20 ml). Corresponding aqueous solutions of 2, 3 and 4 mg/ml were prepared in aqueous poloxamer solutions (20 ml), as follows: The samples were prepared in 50 ml glass vials, and sonicated in an ultrasonic bath for 30 minutes. The solutions were allowed to cool, then visually assessed immediately and after 18 hours. The solubilization factor on the y-axis is a code for the level of solubility visually observed.

[3] = stability of voriconazole in water; conditions: an inactive enantiomer is formed from recombination of the retro-aldol products of hydrolysis

C[C@@H](c1ncncc1F)[C@](O)(Cn1cncn1)c1ccc(F)cc1F [voriconazole, (2R,3S)-2-(2,4-Difluorophenyl)-3-(5-fluoro-4-pyrimidinyl)-1-(1H-1,2,4-triazol-1-yl)-butan-2-ol]
solubility [1]: 610 µg/mL (≈ 1.75 mM) | visual solubility in water ([2]; 0.5 mg/ml in water): virtually complete solubility | visual solubility in water ([2]; 1 mg/ml in water): clearly insoluble | increase in solubility in comparison with water alone ([2]; 10% F127 solution): three to four fold | increase in solubility in comparison with water alone ([2]; 15% F127 solution): five to six fold | solubility ([2]; in 10% F127 solution): ≤ 2000 µg/mL | solubility ([2]; in 15% F127 solution): ≤ 3000 µg/mL | stability in water [3]: not stable in water
